Results on 28 compounds are retold here after patent publication US7169932B2 (priority 2001, dated 2007).

One assay concerns the target T1, HIV-1 protease (Q7S) (Human immunodeficiency virus type 1 group M subtype B, UniProt P04585, Q495S).
T1 construct: made in house
The experiment in a line: HIV-1 Protease RET Assay. Format: biochemical. The following applies: Ave. Ki (nM), RET assay, Q7S enzyme, pH 4.8, 37 C. Here is the method: Ki's for the inhibitors of HIV-1 protease were determined using a resonance energy transfer (RET) assay. […] This enzyme is first partially purified as inclusion bodies from cell lysate. It is then solublized in 8M urea and passed through a Q-Sepharose column (Pharmacia) for further purification. To refold this protein, samples containing Q7S is dialyzed into 50 mM sodium phosphate pH 7.0, 50 mM NaCl, 10 mM DTT, and 10% glycerol.
The commercially available peptide substrate (Molecular Probes Cat. # H-2930) RE(EDANS)SQNYPIVQK(DABCYL)R is used to assess activity and Ki's. This peptide is cleaved quantitatively by HIV-1 Pr at the Tyr-Pro bond. The EDANS fluorophore absorbs at 340 nm and emits at 490 nm. The reaction is carried out in a 96 well plate in a total volume of 100 μL and is run for 12 minutes at 37 C under steady-state conditions with 5 μM substrate and 2 nM active dimer enzyme concentration. The literature value Km for this substrate and enzyme is 103+/−8 μM (See Matayoshi, et al., “Novel Fluorogenic Substrates for Assaying Retroviral Proteases by Resonance Energy Transfer,” Science 247, 954 (1990)). The buffer for this reaction is 0.1M sodium acetate pH 4.8, 1M NaCl, 1 mM EDTA, 5 mM dithiothreitol, 10% dimethyl sulfoxide and 1 mg/ml bovine serum albumin. Inhibition curves are fit using the Morrison tight binding equation.
Take `Cc1ccccc1CNC(=O)[C@@H]1[C@@H](C)OCN1C(=O)[C@@H](O)[C@H](Cc1ccccc1)NC(=O)c1cccc(O)c1C` [Example C5, (4S,5R)-3-((2S,3S)-2-Hydroxy-3-{[1-(3-hydroxy-2-methyl-phenyl)-methanoyl]-amino}-4-phenyl-butanoyl)-5-methyl-oxazolidine-4-carboxylic acid 2-methyl-benzylamide]: the affinity, expressed as Ki, was 3.2 nM.
Same read-out and setting: next, `CCCNC(=O)[C@H]1N(C(=O)[C@@H](O)[C@H](Cc2ccccc2)NC(=O)c2cccc(O)c2C)COC1(C)C` [Example C7, (S)-3-((2S,3S)-2-Hydroxy-3-{[1-(3-hydroxy-2-methyl-phenyl)-methanoyl]-amino}-4-phenyl-butanoyl)-5,5-dimethyl-oxazolidine-4-carboxylic acid propylamide]: 7.9 nM.
The compound `Cc1ccccc1CNC(=O)[C@H]1N(C(=O)[C@@H](O)[C@H](Cc2ccccc2)NC(=O)c2cccnc2)CSC1(C)C` [Example B47, N-{(1S,2S)-1-Benzyl-3-[5,5-dimethyl-4-(2-methyl-benzylcarbamoyl)-thiazolidin-3-yl]-2-hydroxy-3-oxo-propyl}-nicotinamide] yielded an inhibition constant (Ki) of 6.9 nM.
In the case of `CNCCNC(=O)[C@H]1N(C(=O)[C@@H](O)[C@H](Cc2ccccc2)NC(=O)c2cccc(O)c2C)CSC1(C)C` [Example A52, 3-((2S,3S)-2-Hydroxy-3-{[1-(3-hydroxy-2-methyl-phenyl)-methanoyl]-amino}-4-phenyl-butanoyl)-5,5-dimethyl-thiazolidine-4-carboxylic acid (2-methylamino-ethyl)-amide], the Ki came to 37 nM.
`Cc1c(O)cccc1C(=O)N[C@@H](Cc1ccccc1)[C@H](O)C(=O)N1COC(C)(C)[C@H]1C(=O)NCC#N` [Example C10, (S)-3-((2S,3S)-2-Hydroxy-3-{[1-(3-hydroxy-2-methyl-phenyl)-methanoyl]-amino}-4-phenyl-butanoyl)-5,5-dimethyl-oxazolidine-4-carboxylic acid cyanomethyl-amide] yielded a Ki of 36 nM.
The same measure, in the same setting: next, `Cc1ccccc1CNC(=O)C1N(C(=O)[C@@H](O)[C@H](Cc2ccccc2)NC(=O)c2ccccn2)CSC1(C)C` (stereo partly drawn) [Example B45, Pyridine-2-carboxylic acid {(1S,2S)-1-benzyl-3-[5,5-dimethyl-4-(2-methyl-benzylcarbamoyl)-thiazolidin-3-yl]-2-hydroxy-3-oxo-propyl}-amide]: 19.7 nM; `Cc1noc(C)c1C(=O)NC(Cc1ccccc1)C(O)C(=O)N1CSC(C)(C)C1C(=O)NCc1ccccc1C(F)(F)F` (stereo not shown) [Example B27, 3,5-Dimethyl-isoxazole-4-carboxylic acid {1-benzyl-3-[5,5-dimethyl-4-(2-trifluoromethyl-benzylcarbamoyl)-thiazolidin-3-yl]-2-hydroxy-3-oxo-propyl}-amide]: 3.5 nM.
`Cc1cc(O)c(C)c(C(=O)N[C@@H](Cc2ccccc2)[C@H](O)C(=O)N2CSC(C)(C)[C@H]2C(=O)NCc2ccccc2C)c1` [Example B43, (R)-3-[(2S,3S)-2-Hydroxy-3-(3-hydroxy-2,5-dimethyl-benzoylamino)-4-phenyl-butyryl]-5,5-dimethyl-thiazolidine-4-carboxylic acid 2-methyl-benzylamide]: the Ki worked out at 0.2 nM.
Compound `Cc1ccccc1CNC(=O)[C@H]1N(C(=O)[C@@H](O)[C@H](Cc2ccccc2)NC(=O)c2ccncc2Cl)CSC1(C)C` [Example B42, {(1S,2S)-1-Benzyl-3-[(R)-5,5-dimethyl-4-(2-methyl-benzylcarbamoyl)-thiazolidin-3-yl]-2-hydroxy-3-oxo-propyl}-3-chloro-isonicotinamide] came in with an inhibition constant Ki of 0.73 nM.
Still for that read-out and setting: to `Cc1ccccc1CNC(=O)[C@H]1N(C(=O)[C@@H](O)[C@H](Cc2ccccc2)NC(=O)c2ccc(O)cc2C)CSC1(C)C` [Example B39, (R)-3-[(2S,3S)-2-Hydroxy-3-(4-hydroxy-2-methyl-benzoylamino)-4-phenyl-butyryl]-5,5-dimethyl-thiazolidine-4-carboxylic acid 2-methyl-benzylamide] belongs 0.16 nM.
The same measure, in the same setting: to `C=CCNC(=O)[C@H]1N(C(=O)[C@@H](O)[C@H](Cc2ccccc2)NC(=O)c2cccnc2C)CSC1(C)C` [Example B49, N-[(1S,2S)-3-(4-Allylcarbamoyl-5,5-dimethyl-thiazolidin-3-yl)-1-benzyl-2-hydroxy-3-oxo-propyl]-2-methyl-nicotinamide] belongs 17.2 nM.
Take `COc1cccc(CNC(=O)[C@H]2N(C(=O)[C@@H](O)[C@H](Cc3ccccc3)NC(=O)c3cccc(F)c3C)CSC2(C)C)c1` [Example B32, (R)-3-((2S,3S)-3-{[1-(3-Fluoro-2-methyl-phenyl)-methanoyl]-amino}-2-hydroxy-4-phenyl-butanoyl)-5,5-dimethyl-thiazolidine-4-carboxylic acid 3-methoxy-benzylamide]: the affinity corresponds to a Ki of 4.9 nM.
Still for that read-out and setting: to `Cc1ccccc1CNC(=O)[C@H]1N(C(=O)[C@@H](O)[C@H](Cc2ccccc2)NC(=O)c2ccnc(Cl)c2Cl)CSC1(C)C` [Example B41, {(1S,2S)-1-Benzyl-3-[(R)-5,5-dimethyl-4-(2-methyl-benzylcarbamoyl)-thiazolidin-3-yl]-2-hydroxy-3-oxo-propyl}-2,3-dichloro-isonicotinamide] belongs 0.15 nM.

The assay is the same for the next values; noted with them: Ki, table of drawn compounds, unit inferred.
`Cc1c(O)cccc1C(=O)N[C@@H](Cc1ccccc1)[C@H](O)C(=O)N1CSC(C)(C)[C@H]1C(=O)NCC(C)C`: the Ki was ≤ 0.1 nM.
As to `CCC(C)CNC(=O)[C@H]1N(C(=O)[C@@H](O)[C@H](Cc2ccccc2)NC(=O)c2cccc(O)c2C)CSC1(C)C` (stereo partly shown), the Ki is ≤ 0.1 nM.
In turn, `Cc1ccccc1CNC(=O)[C@H]1N(C(=O)[C@@H](O)[C@H](Cc2ccccc2)NC(=O)c2cccnc2Cl)CSC1(C)C` registered a Ki of 0.75 nM.
Turning to `Cc1c(O)cccc1C(=O)N[C@@H](Cc1ccccc1)[C@H](O)C(=O)N1CSC(C)(C)[C@H]1C(=O)NCc1cccc(C(F)(F)F)c1F`, the Ki was determined as 62 nM.
For the compound `Cc1ccccc1CNC(=O)[C@H]1N(C(=O)[C@@H](O)[C@H](Cc2ccccc2)NC(=O)C2=CCCC2)CSC1(C)C`, the Ki turned out to be 3.4 nM.
The same measure, in the same setting: to `Cc1c(O)cccc1C(=O)N[C@@H](Cc1ccccc1)[C@H](O)C(=O)N1CSC(C)(C)C1C(=O)NCCc1ccc(O)cc1` (stereo partly shown) belongs 13.1 nM; to `COc1cccc(C(=O)[C@H]2N(C(=O)[C@@H](O)[C@H](Cc3ccccc3)NC(=O)c3cccc(O)c3C)CSC2(C)C)c1`, 7.4 nM.
On the same count and under the same terms, to `Cc1ccccc1CNC(=O)[C@H]1N(C(=O)[C@@H](O)[C@H](Cc2ccccc2)NC(=O)C2CCCC2)CSC1(C)C` belongs 12.1 nM.

Still in this assay, the particulars now being: RET assay, Q7S enzyme, pH 4.8, 37 C; read-out: Ave. Ki.
`Cc1ccccc1CNC(=O)[C@@H]1CC(F)(F)CN1C(=O)[C@@H](O)[C@H](Cc1ccccc1)NC(=O)c1cccc(O)c1C` [Example C1, (S)-4,4-Difluoro-1-[(2S,3S)-2-hydroxy-3-(3-hydroxy-2-methyl-benzoylamino)-4-phenyl-butyryl]-pyrrolidine-2-carboxylic acid 2-methyl-benzylamide.]: the Ki was determined as 0.38 nM.
On the same count and under the same terms, to `C=CCCC(=O)[C@H]1N(C(=O)[C@@H](O)[C@H](Cc2ccccc2)NC(=O)c2cccc(O)c2C)CSC1(C)C` [Example D1, N-[(1S,2S)-1-Benzyl-3-((R)-5,5-dimethyl-4-pent-4-enoyl-thiazolidin-3-yl)-2-hydroxy-3-oxo-propyl]-3-hydroxy-2-methyl-benzamide] belongs < 0.01 nM; to `Cc1ccccc1CNC(=O)C1N(C(=O)[C@@H](O)[C@H](Cc2ccccc2)NC(=O)c2ccc(O)cn2)CSC1(C)C` (stereo partly drawn) [Example B46, Pyridine-2–5-hydroxy-carboxylic acid{(1S,2S)-1-benzyl-3-[5,5-dimethyl-4-(2-methyl-benzylcarbamoyl)-thiazolidin-3-yl]-2-hydroxy-3-oxo-propyl}-amide], 12.5 nM; to `Cc1c(O)cccc1C(=O)N[C@@H](Cc1ccccc1)[C@H](O)C(=O)N1CSC(C)(C)[C@H]1C(=O)NCc1ccc2c(c1)OC(F)(F)O2` [Example A48, (R)-3-((2S,3S)-2-Hydroxy-3-{[1-(3-hydroxy-2-methyl-phenyl)-methanoyl]-amino}-4-phenyl-butanoyl)-5,5-dimethyl-thiazolidine-4-carboxylic acid (2,2-difluoro-benzo[1,3]dioxol-5-ylmethyl)-amide], 0.19 nM.
With `Cc1c(O)cccc1C(=O)N[C@@H](Cc1ccccc1)[C@H](O)C(=O)N1CSC(C)(C)[C@H]1C(=O)NCc1ccc2c(c1)OCO2` [Example A22, 3-((2S,3S)-2-Hydroxy-3-{[1-(3-hydroxy-2-methyl-phenyl)-methanoyl]-amino}-4-phenyl-butanoyl)-5,5-dimethyl-thiazolidine-4-carboxylic acid (benzo[1,3]dioxol-5-ylmethyl)-amide], the Ki came out at 0.32 nM.
The same measure, in the same setting: to `Cc1ccccc1CNC(=O)[C@H]1N(C(=O)[C@@H](O)[C@H](Cc2ccccc2)NC(=O)N2CC[C@@H](O)C2)CSC1(C)C` [Example B1, 3-(2-hydroxy-3-{[1-(3-hydroxy-pyrrolidin-yl)-methanoyl]-amino}-4-phenyl-butanoyl)-5,5-dimethyl-thiazolidine-4-carboxylic acid-2-methyl-benzylamide] belongs 2.5 nM.

Staying with this assay, now noted: table of drawn compounds, unit inferred; read-out: Ki.
In the case of `Cc1ccccc1CNC(=O)[C@H]1N(C(=O)[C@@H](O)[C@H](Cc2ccccc2)NC(=O)Cc2c(F)cccc2F)CSC1(C)C`, the Ki was determined as 72 nM.
